In ChEMBL document CHEMBL1134755, “B-ring substituted 5,7-dihydroxyflavonols with high-affinity binding to P-glycoprotein responsible for cell multidrug resistance” (Bioorg Med Chem Lett, 2001):
pKd: −log10 of the molar value.

Target: T1, ATP-dependent translocase ABCB1 (Mus musculus, UniProt P21447)
Experiment: Percent of maximal quenching fluorescence for binding analysis to nucleotide-binding domain (NBD2) of P-Glycoprotein was determined

T1 sequence (P21447 whole entry, the tested form may be a part): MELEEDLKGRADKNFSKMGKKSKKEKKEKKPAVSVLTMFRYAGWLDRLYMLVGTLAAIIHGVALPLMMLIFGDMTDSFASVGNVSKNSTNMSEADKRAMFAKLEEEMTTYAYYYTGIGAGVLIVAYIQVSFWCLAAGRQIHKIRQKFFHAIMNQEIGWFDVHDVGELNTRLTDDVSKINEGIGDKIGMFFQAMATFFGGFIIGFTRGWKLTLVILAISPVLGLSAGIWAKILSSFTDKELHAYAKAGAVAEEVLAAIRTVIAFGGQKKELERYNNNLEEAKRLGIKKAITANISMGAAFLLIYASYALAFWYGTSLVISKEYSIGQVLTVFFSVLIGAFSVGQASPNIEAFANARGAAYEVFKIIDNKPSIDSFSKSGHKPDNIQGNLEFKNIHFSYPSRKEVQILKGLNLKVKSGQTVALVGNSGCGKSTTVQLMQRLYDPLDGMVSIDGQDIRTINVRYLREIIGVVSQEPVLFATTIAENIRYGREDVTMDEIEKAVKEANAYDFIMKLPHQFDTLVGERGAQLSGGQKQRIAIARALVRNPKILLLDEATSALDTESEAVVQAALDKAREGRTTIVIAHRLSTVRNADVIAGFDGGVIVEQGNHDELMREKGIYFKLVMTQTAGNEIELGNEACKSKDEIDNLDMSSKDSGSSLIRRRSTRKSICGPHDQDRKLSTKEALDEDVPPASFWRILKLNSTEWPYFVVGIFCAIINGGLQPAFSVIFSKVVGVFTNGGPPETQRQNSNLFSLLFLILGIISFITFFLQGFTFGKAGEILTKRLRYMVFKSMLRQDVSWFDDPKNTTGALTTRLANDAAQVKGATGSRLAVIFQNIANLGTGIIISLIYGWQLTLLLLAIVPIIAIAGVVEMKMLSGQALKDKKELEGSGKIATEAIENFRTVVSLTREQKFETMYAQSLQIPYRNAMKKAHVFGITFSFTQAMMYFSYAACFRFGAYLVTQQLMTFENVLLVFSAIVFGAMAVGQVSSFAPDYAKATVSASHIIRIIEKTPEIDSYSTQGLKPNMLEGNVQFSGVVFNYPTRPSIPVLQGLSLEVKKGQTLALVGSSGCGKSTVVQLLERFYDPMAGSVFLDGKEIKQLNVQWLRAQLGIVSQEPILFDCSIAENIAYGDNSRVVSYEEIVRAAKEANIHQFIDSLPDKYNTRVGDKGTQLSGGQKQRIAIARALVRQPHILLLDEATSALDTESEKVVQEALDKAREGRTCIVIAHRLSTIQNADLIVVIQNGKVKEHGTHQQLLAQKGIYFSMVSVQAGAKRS

| Structure (SMILES) | Delta Fmax [%] |
| --- | --- |
| O=c1c(O)c(-c2ccc(C(c3ccccc3)c3ccccc3)cc2)oc2cc(O)cc(O)c12 | 84.6 |
| CCCCCCCCc1ccc(-c2oc3cc(O)cc(O)c3c(=O)c2O)cc1 | 62.1 |
| O=c1c(O)c(-c2ccc(Cl)cc2Cl)oc2cc(O)cc(O)c12 | 85.3 |
| O=c1c(O)c(-c2ccc(F)cc2)oc2cc(O)cc(O)c12 | 91.6 |
| O=c1c(O)c(-c2ccc(I)cc2)oc2cc(O)cc(O)c12 | 95.5 |
| O=c1c(O)c(-c2ccccc2)oc2cc(O)cc(O)c12 [GALANGIN] | 95 |
| COc1ccc(-c2oc3cc(O)cc(O)c3c(=O)c2O)cc1 [KAEMPFERIDE] | 96.7 |
| O=c1c(O)c(-c2ccc(O)cc2)oc2cc(O)cc(O)c12 [KAEMPFEROL] | 97.6 |

Target: T1, ATP-dependent translocase ABCB1
Experiment: Binding affinity to nucleotide-binding domain (NBD2) of P-Glycoprotein

| Structure (SMILES) | pKd |
| --- | --- |
| O=c1c(O)c(-c2ccc(C(c3ccccc3)c3ccccc3)cc2)oc2cc(O)cc(O)c12 | 5.70 |
| CCCCCCCCc1ccc(-c2oc3cc(O)cc(O)c3c(=O)c2O)cc1 | 7.24 |
| O=c1c(O)c(-c2ccc(Cl)cc2Cl)oc2cc(O)cc(O)c12 | 5.40 |
| O=c1c(O)c(-c2ccc(F)cc2)oc2cc(O)cc(O)c12 | 5.17 |
| O=c1c(O)c(-c2ccc(I)cc2)oc2cc(O)cc(O)c12 | 5.97 |
| O=c1c(O)c(-c2ccccc2)oc2cc(O)cc(O)c12 [GALANGIN] | 5.23 |
| COc1ccc(-c2oc3cc(O)cc(O)c3c(=O)c2O)cc1 [KAEMPFERIDE] | 5.30 |
| O=c1c(O)c(-c2ccc(O)cc2)oc2cc(O)cc(O)c12 [KAEMPFEROL] | 5.17 |
